Reference: US8802700B2 (Vertex Pharmaceuticals Incorporated, priority 2010, dated 2014)

The compounds below were run against T1, ΔF508-CFTR (Homo sapiens, UniProt P13569, DEL508-508) (assay: Membrane potential optical assay (FRET voltage-sensor dyes, VIPR), identification of potentiator compounds). Settings: Table 3; assay not given.
T1 construct: expressed in transfected cells
Format: cell-based
In short: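 Potentiator screen measured membrane potential via FRET between CC2-DMPE donor and DiSBAC2(3), read on VIPR II. Compound went in with the first addition of chloride-free gluconate bath; cells were ΔF508-CFTR-expressing NIH3T3 mouse fibroblasts, temperature-corrected at 27 °C for 24 h.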

T1 sequence (P13569 with tags, fused parts or gaps DEL508-508): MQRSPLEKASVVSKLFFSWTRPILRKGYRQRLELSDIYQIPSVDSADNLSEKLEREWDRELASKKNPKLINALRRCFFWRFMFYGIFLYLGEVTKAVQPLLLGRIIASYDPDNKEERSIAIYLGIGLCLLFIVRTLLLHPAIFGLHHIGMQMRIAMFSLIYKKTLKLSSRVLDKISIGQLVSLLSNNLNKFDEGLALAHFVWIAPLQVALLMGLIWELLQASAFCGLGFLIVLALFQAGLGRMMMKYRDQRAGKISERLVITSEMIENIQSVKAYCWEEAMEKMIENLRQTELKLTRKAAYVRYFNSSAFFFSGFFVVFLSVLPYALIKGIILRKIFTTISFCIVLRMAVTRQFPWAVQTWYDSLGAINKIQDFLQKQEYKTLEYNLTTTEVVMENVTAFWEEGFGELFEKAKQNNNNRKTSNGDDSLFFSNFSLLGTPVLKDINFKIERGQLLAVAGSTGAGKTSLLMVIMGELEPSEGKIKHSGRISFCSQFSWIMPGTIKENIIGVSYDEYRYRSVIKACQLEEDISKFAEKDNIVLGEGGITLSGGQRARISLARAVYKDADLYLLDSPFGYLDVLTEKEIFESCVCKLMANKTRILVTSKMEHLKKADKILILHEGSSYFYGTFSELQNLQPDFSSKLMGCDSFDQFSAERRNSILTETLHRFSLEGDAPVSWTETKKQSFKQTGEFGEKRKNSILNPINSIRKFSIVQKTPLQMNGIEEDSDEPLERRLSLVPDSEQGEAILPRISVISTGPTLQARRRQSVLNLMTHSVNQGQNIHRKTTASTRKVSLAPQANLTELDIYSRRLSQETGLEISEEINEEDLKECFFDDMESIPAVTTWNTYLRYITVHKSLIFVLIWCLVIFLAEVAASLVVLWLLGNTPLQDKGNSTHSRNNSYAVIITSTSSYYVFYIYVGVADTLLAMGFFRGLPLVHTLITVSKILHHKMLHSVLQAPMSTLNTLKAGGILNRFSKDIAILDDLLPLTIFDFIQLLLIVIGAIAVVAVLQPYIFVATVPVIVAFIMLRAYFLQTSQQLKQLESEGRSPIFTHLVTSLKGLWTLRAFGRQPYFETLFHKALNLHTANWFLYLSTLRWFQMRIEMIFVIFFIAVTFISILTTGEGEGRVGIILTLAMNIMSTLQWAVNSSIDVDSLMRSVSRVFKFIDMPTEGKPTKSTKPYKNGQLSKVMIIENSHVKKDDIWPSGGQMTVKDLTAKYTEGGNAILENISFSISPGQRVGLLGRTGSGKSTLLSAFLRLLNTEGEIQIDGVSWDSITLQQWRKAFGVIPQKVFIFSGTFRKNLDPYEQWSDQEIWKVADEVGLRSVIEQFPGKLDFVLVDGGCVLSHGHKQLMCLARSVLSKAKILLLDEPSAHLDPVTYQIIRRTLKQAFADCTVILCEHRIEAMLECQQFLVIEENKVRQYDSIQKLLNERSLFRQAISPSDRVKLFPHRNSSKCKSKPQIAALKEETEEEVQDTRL

EC50 [µM]	SMILES
< 10	O=C(Nc1ccccc1-c1ccc2[nH]ccc2c1)c1c[nH]c2ccccc2c1=O [Compound 118, N-[2-(1H-indol-5-yl)phenyl]-4-oxo-1H-quinoline-3-carboxamide]
< 10	O=C(Nc1ccccc1-c1ccc(Cl)cc1Cl)c1c[nH]c2ccccc2c1=O [Compound 139, N-[2-(2,4-dichlorophenyl)phenyl]-4-oxo-1H-quinoline-3-carboxamide]
10 to 25	O=C(Nc1ccccc1-c1ccncc1)c1c[nH]c2ccccc2c1=O [Compound 70, 4-oxo-N-[2-(4-pyridyl)phenyl]-1H-quinoline-3-carboxamide]
< 10	CC(C)c1ccc(NC(=O)c2c[nH]c3ccc(F)cc3c2=O)cc1O [Compound 597, 6-fluoro-N-(3-hydroxy-4-isopropyl-phenyl)-4-oxo-1H-quinoline-3-carboxamide]

Same assay, conditions: Table 3; assay not given; read-out: % Activity (% Efficacy, relative efficacy)

Emax [%]	SMILES
25 to 100	O=C(Nc1ccc(N2CCCCC2)cc1C(F)(F)F)c1c[nH]c2ccccc2c1=O [Compound 686, 4-oxo-N-[4-(1-piperidyl)-2-(trifluoromethyl)phenyl]-1H-quinoline-3-carboxamide]
< 25	O=C(Nc1ccc2c(c1)CCO2)c1c[nH]c2ccccc2c1=O [Compound 467, N-(2,3-dihydrobenzofuran-5-yl)-4-oxo-1H-quinoline-3-carboxamide]
25 to 100	Cc1cccc2[nH]cc(C(=O)Nc3ccc(N4[C@@H](C)CC[C@@H]4C)cc3C(F)(F)F)c(=O)c12 [Compound 516, N-(4-((2S,5S)-2,5-dimethylpyrrolidin-1-yl)-2-(trifluoromethyl)phenyl)-5-methyl-4-oxo-1,4-dihydroquinoline-3-carboxamide]
25 to 100	Cc1ccc(-c2ccccc2NC(=O)c2c[nH]c3ccccc3c2=O)cc1C [Compound 261, N-[2-(3,4-dimethylphenyl)phenyl]-4-oxo-1H-quinoline-3-carboxamide]
25 to 100	O=C(Nc1ccc2cc(C(F)(F)F)[nH]c2c1)c1c[nH]c2cccc(O)c2c1=O [Compound 693, 5-hydroxy-4-oxo-N-[2-(trifluoromethyl)-1H-indol-6-yl]-1H-quinoline-3-carboxamide]
25 to 100	O=C(Nc1ccc(N2CC[C@@H](O)C2)cc1C(F)(F)F)c1c[nH]c2ccccc2c1=O [Compound 705, (R)-N-(4-(3-hydroxypyrrolidin-1-yl)-2-(trifluoromethyl)phenyl)-4-oxo-1,4-dihydroquinoline-3-carboxamide]
25 to 100	COC(=O)NC1CCCc2ccc(NC(=O)c3c[nH]c4ccccc4c3=O)cc21 (stereo not shown) [Compound 159, [7-[(4-Oxo-1H-quinolin-3-yl)carbonylamino]tetralin-1-yl]aminoformic acid methyl ester]
< 25	CC(CO)(CO)c1ccc(NC(=O)c2c[nH]c3ccc(F)cc3c2=O)cc1 [Compound 627, 6-fluoro-N-[4-[2-hydroxy-1-(hydroxymethyl)-1-methyl-ethyl]phenyl]-4-oxo-1H-quinoline-3-carboxamide]
< 25	CC(CO)(CO)c1ccc(NC(=O)c2c[nH]c3ccccc3c2=O)cc1 [Compound 590, N-[4-[2-hydroxy-1-(hydroxymethyl)-1-methyl-ethyl]phenyl]-4-oxo-1H-quinoline-3-carboxamide]
25 to 100	O=C(Nc1ccccc1-c1ccc2[nH]ccc2c1)c1c[nH]c2ccccc2c1=O [Compound 118, N-[2-(1H-indol-5-yl)phenyl]-4-oxo-1H-quinoline-3-carboxamide]
25 to 100	CC1(c2ccc(NC(=O)c3c[nH]c4ccc(F)cc4c3=O)cc2)COC1 [Compound 521, 6-fluoro-N-[4-(3-methyloxetan-3-yl)phenyl]-4-oxo-1H-quinoline-3-carboxamide]
25 to 100	Cc1ccc(C)c(NC(=O)c2c[nH]c3ccccc3c2=O)c1 [Compound 434, N-(2,5-dimethylphenyl)-4-oxo-1H-quinoline-3-carboxamide]
25 to 100	Cc1cccc2[nH]cc(C(=O)Nc3ccc(N4CCC[C@@H]4C)cc3C(F)(F)F)c(=O)c12 [Compound 511, (S)-5-methyl-N-(4-(2-methylpyrrolidin-1-yl)-2-(trifluoromethyl)phenyl)-4-oxo-1,4-dihydroquinoline-3-carboxamide]
25 to 100	O=C(Nc1ccc(C2CCCCC2)c(O)c1)c1c[nH]c2ccccc2c1=O [Compound 564, N-(4-cyclohexyl-3-hydroxy-phenyl)-4-oxo-1H-quinoline-3-carboxamide]
25 to 100	CN(C)c1cccc(NC(=O)c2c[nH]c3ccccc3c2=O)c1 [Compound 418, N-(3-dimethylaminophenyl)-4-oxo-1H-quinoline-3-carboxamide]
25 to 100	CC(=O)N1CCC2(CCN(C(=O)OC(C)(C)C)CC2)c2ccc(NC(=O)c3c[nH]c4ccccc4c3=O)cc21 [Compound 334, 7′-[(4-oxo-1H-quinolin-3-ylcarbonyl)amino]-spiro[piperidine-4,4′(1′H)-1-acetyl-quinoline], 2′,3′-dihydro-carboxylic acid tert-butyl ester]
< 25	Cc1cccc2c(=O)c(C(=O)Nc3cc4[nH]ccc4cc3C(C)(C)C)c[nH]c12 [Compound 644, 8-methyl-4-oxo-N-(5-tert-butyl-1H-indol-6-yl)-1H-quinoline-3-carboxamide]
25 to 100	Nc1cccc(NC(=O)c2c[nH]c3ccccc3c2=O)c1 [Compound 431, N-(3-aminophenyl)-4-oxo-1H-quinoline-3-carboxamide]
25 to 100	COC(=O)Nc1cc(NC(=O)c2c[nH]c3ccccc3c2=O)ccc1C(C)C [Compound 30, [2-isopropyl-5-[(4-oxo-1H-quinolin-3-yl)carbonylamino]phenyl]aminoformic acid methyl ester]
25 to 100	Cc1ccccc1Oc1ccccc1NC(=O)c1c[nH]c2ccccc2c1=O [Compound 20, N-[2-(2-methylphenoxy)phenyl]-4-oxo-1H-quinoline-3-carboxamide]
25 to 100	O=C(Nc1ccc(Sc2ccccc2)cc1)c1c[nH]c2ccccc2c1=O [Compound 470, 4-oxo-N-(4-phenylsulfanylphenyl)-1H-quinoline-3-carboxamide]
25 to 100	O=C(Nc1cc(C(=O)O)c2cc[nH]c2c1)c1c[nH]c2ccccc2c1=O [Compound 711, 6-[(4-oxo-1H-quinolin-3-yl)carbonylamino]-1H-indole-4-carboxylic acid]
25 to 100	O=C(Nc1ccccc1-c1ccc(Cl)cc1Cl)c1c[nH]c2ccccc2c1=O [Compound 139, N-[2-(2,4-dichlorophenyl)phenyl]-4-oxo-1H-quinoline-3-carboxamide]
25 to 100	CC1(c2cc(F)c(NC(=O)c3cnc4ccccc4c3O)cc2O)CCCCCCC1 [Compound 403, N-[2-fluoro-5-hydroxy-4-(1-methylcyclooctyl)-phenyl]-4-hydroxy-quinoline-3-carboxamide]
25 to 100	O=C(Nc1ccccc1-c1ccncc1)c1c[nH]c2ccccc2c1=O [Compound 70, 4-oxo-N-[2-(4-pyridyl)phenyl]-1H-quinoline-3-carboxamide]
25 to 100	Cc1ccc2c(=O)c(C(=O)Nc3cc4[nH]ccc4cc3C(F)(F)F)c[nH]c2c1 [Compound 576, 7-methyl-4-oxo-N-[5-(trifluoromethyl)-1H-indol-6-yl]-1H-quinoline-3-carboxamide]
25 to 100	Cc1ccc(NC(=O)c2c[nH]c3ccccc3c2=O)c(F)c1 [Compound 289, N-(2-fluoro-4-methyl-phenyl)-4-oxo-1H-quinoline-3-carboxamide]
25 to 100	CC(C)c1ccc(NC(=O)c2c[nH]c3ccc(F)cc3c2=O)cc1O [Compound 597, 6-fluoro-N-(3-hydroxy-4-isopropyl-phenyl)-4-oxo-1H-quinoline-3-carboxamide]
25 to 100	O=C(Nc1ccc(OCc2ccccc2)cc1)c1c[nH]c2ccccc2c1=O [Compound 189, N-(4-benzyloxyphenyl)-4-oxo-1H-quinoline-3-carboxamide]
25 to 100	O=C(Nc1ccccc1-c1ccccc1)c1c[nH]c2cc(C(F)(F)F)ccc2c1=O [Compound 469, 4-oxo-N-(2-phenylphenyl)-7-(trifluoromethyl)-1H-quinoline-3-carboxamide]
